Measurements published in ChEMBL document CHEMBL5390263, “Direct evaluation of polarity of the ligand binding pocket in retinoid X receptor using a fluorescent solvatochromic agonist” (Bioorg Med Chem Lett, 2023).
Activity calls are given as the source filed them. No cut-off for these calls is given here.

Assays:
[1] = biological target: T1, Retinoic acid receptor RXR-alpha (Homo sapiens) (UniProt P19793); test: Binding affinity to RXRalpha-LBD (unknown origin) assessed as increase in fluorescence intensity by measuring maximum excitation wavelength from 382 to 440 nm by FRET assay; conditions: filed as agonist, dose <= 16.0 µM
T1 sequence (whole entry): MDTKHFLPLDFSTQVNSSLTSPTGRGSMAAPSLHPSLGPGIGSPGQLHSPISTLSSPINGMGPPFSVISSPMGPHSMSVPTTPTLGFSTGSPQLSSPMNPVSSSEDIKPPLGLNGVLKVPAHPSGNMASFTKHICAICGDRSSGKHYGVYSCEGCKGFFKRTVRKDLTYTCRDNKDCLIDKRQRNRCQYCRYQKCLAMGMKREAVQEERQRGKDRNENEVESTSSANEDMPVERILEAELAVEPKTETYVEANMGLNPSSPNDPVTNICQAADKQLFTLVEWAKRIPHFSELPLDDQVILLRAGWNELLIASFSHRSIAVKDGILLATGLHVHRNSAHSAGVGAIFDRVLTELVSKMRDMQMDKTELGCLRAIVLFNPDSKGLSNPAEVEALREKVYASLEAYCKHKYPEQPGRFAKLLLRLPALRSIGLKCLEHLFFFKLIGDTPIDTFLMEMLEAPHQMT

[2] = biological target: T1, Retinoic acid receptor RXR-alpha (Homo sapiens); test: Binding affinity to RXRalpha-LBD (unknown origin) assessed as increase in fluorescence intensity by measuring maximum excitation of 440 nm wavelength at 16 uM by FRET assay; conditions: filed as agonist
[3] = biological target: T1, Retinoic acid receptor RXR-alpha (Homo sapiens); test: Binding affinity to RXRalpha-LBD (unknown origin) assessed as fluorescence intensity by measuring maximum excitation wavelength from 382 to 440 nm at 5 to 20 uM in the presence of bexarotene by FRET assay; conditions: dose 5-20 µM
[4] = biological target: T2, Retinoic acid receptor RXR-alpha (Homo sapiens, UniProt P19793); test: Binding affinity to RXRalpha-LBD (unknown origin) assessed as dissociation constant by FRET assay
T2 sequence (P19793 whole entry): T1 sequence (whole entry)

[5] = biological target: T2, Retinoic acid receptor RXR-alpha; test: Binding affinity to RXRalpha-LBP (unknown origin) assessed as dissociation constant by FRET assay
[6] = biological target: T1, Retinoic acid receptor RXR-alpha (Homo sapiens); test: Binding affinity to RXR alpha-LBD (unknown origin) assessed as increase in fluorescence intensity up to 16 uM by FRET assay; conditions: filed as agonist

Question: For `CCN(c1ccc2c(C(F)(F)F)cc(=O)n(CC(C)C)c2c1)c1ccc(C(=O)O)cn1`, which Activity [1] is on record?
Answer: Its Activity is “Dose-Dependent Effect”.

Question: What about the Activity [2] of the same molecule?
Answer: The Activity was “Active”.

Question: What about the Activity [3] of the same molecule?
Answer: The Activity was “inactive”.

Question: And the Kd [4]?
Answer: The Kd was 6.3 µM.

Question: And the Kd [5]?
Answer: The Kd was 10.9 µM.

Question: And the Activity [6]?
Answer: Its Activity is “Active”.
